From patent US8735538B1, “Use of methanobactin” (priority 2006, dated 2014)
Like-named read-outs stand apart in the source and are kept apart here.

Columns and labels:
[1] = ITC, metal binding to mb: Ag(I); settings: Ag(I) column
Experimental: (§1) FIG. 14. Binding isotherm of 3.2 mM HgCl2 (A), HAuCl4 (B), AgNO3 (C) NiCl2 (D), ZnCl2 (E) or FeCl3 (F) into 400 μM mb (cell) aqueous solution at 25° C. Binding isotherm of 1.6 mM HAuCl4 (B). The curve fittings for two-site binding algorithm were used.
(§2) FIG. 15. Binding isotherm of 3.2 mM CdCl2 (A), CoCl2(B), FeCl3 (C), or MnCl2(D) into […] mb aqueous solution at 25° C. Curve fittings for one-site binding algorithm (B, D) or two-site binding algorithm (A, C) were used.
(§3) ITC was performed with following modifications from the previously described procedure (Choi et al., 2006). First, concentrations of the titrant and cell solutions were raised to 3.2 mM and 0.4 mM, respectively. Second, the interval between titrant injections were decreased to 600 s and the stirring rate decreased to 380 rpm.

[2] = ITC, metal binding to mb: Au(III); settings: column headed Au(II)
Experimental: as §1, §2, §3

[3] = ITC, metal binding to mb: Hg(II); settings: Hg(II) column
Experimental: as §1, §2, §3

[4] = ITC, metal binding to mb: Pb(II); settings: Pb(II) column, one-site binding model
Experimental: as §1, §2, §3

[5] = ITC, metal binding to mb: Cd(II); settings: Cd(II) column
Experimental: as §1, §2, §3

[6] = ITC, metal binding to mb: Co(II); settings: Co(II) column, one-site fit, 25° C.
Experimental: as §1, §2, §3

[7] = ITC, metal binding to mb: Fe(III); settings: Fe(III) column
Experimental: as §1, §2, §3

[8] = ITC, metal binding to mb: Mn(II); settings: Mn(II) column, one-site fit, 25° C.
Experimental: as §1, §2, §3

[9] = ITC, metal binding to mb: Ni(II); settings: Ni(II) column
Experimental: as §1, §2, §3

[10] = ITC, metal binding to mb: Zn(II); settings: Zn(II) column
Experimental: as §1, §2, §3

[11] = Initial screening by UV-visible absorption spectroscopy: Ag(I); format: binding; settings: in the absence of Cu(II) or Cu(I)
Experimental: (§4) Metal titration experiments were determined by addition of 100 μM, 1 mM, or 10 mM solutions of AgNO3, HAuCl4, CdCl2, CoCl2, CrO3, CuSO4, FeCl3, HgCl2, MgCl2, MnCl2, NiCl2, Pb(NO3)2, UO2(NO3)2, or ZnSO4 to 50 μM methanobactin dissolved in H2O, pH 6.8 as previously described for Cu(II) or Cu(I) titrations (Choi et al., 2006) unless otherwise stated. Glassware was soaked in 0.1 N HNO3 for 12 hours then rinsed with milliQ H2O. For the metal replacement experiments, 50 μM aqueous mb solutions were preloaded with equimolar of AgNO3, HAuCl4, CaCl2, CdCl2, CoCl2, CrO3, CuSO4, FeCl3, HgCl2, MgCl2, MnCl2, NiCl2, Pb(NO3)2, UO2(NO3)2, or ZnSO4, incubated for 10 minutes followed by the addition of equimolar CuSO4 then monitored via UV-visible absorption spectroscopy every 30 seconds for 0.5-120 minutes. Between scans the samples were stored in the dark to avoid photodegradation (Choi et al., 2005).
(§5) UV-visible absorption, florescence spectra, circular dichroism (CD), and metal determinations via inductively coupled plasma atomic emission-mass spectroscopy (ICP-MS) were determined as previously described (Choi et al., 2003; Choi et al., 2006). In contrast to a previous report (Choi et al., 2006), the base line was used as a reference point of 0 instead of isosbestic point e for the comparison of Δεs.

[12] = Initial screening by UV-visible absorption spectroscopy: Au(III); format: binding; settings: in the absence of Cu(II) or Cu(I)
Experimental: as §4, §5

[13] = Initial screening by UV-visible absorption spectroscopy: Cd(II); format: binding; settings: in the absence of Cu(II) or Cu(I)
Experimental: as §4, §5

[14] = Initial screening by UV-visible absorption spectroscopy: Co(II); format: binding; settings: in the absence of Cu(II) or Cu(I)
Experimental: as §4, §5

[15] = Initial screening by UV-visible absorption spectroscopy: Fe(III); format: binding; settings: in the absence of Cu(II) or Cu(I)
Experimental: as §4, §5

[16] = Initial screening by UV-visible absorption spectroscopy: Hg(II); format: binding; settings: in the absence of Cu(II) or Cu(I)
Experimental: as §4, §5

[17] = Initial screening by UV-visible absorption spectroscopy: Mn(II); format: binding; settings: in the absence of Cu(II) or Cu(I)
Experimental: as §4, §5

[18] = Initial screening by UV-visible absorption spectroscopy: Ni(II); format: binding; settings: in the absence of Cu(II) or Cu(I)
Experimental: as §4, §5

[19] = Initial screening by UV-visible absorption spectroscopy: Pb(II); format: binding; settings: in the absence of Cu(II) or Cu(I)
Experimental: as §4, §5

[20] = Initial screening by UV-visible absorption spectroscopy: U(VI); format: binding; settings: in the absence of Cu(II) or Cu(I)
Experimental: as §4, §5

[21] = Initial screening by UV-visible absorption spectroscopy: Zn(II); format: binding; settings: in the absence of Cu(II) or Cu(I)
Experimental: as §4, §5

[22] = Initial screening by UV-visible absorption spectroscopy: Ba(II); format: binding; settings: in the absence of Cu(II) or Cu(I)
[23] = Initial screening by UV-visible absorption spectroscopy: La(III); format: binding; settings: in the absence of Cu(II) or Cu(I)
[24] = Initial screening by UV-visible absorption spectroscopy: Mg(II); format: binding; settings: in the absence of Cu(II) or Cu(I)
Experimental: as §4, §5

[25] = Initial screening by UV-visible absorption spectroscopy: Sr(II); format: binding; settings: in the absence of Cu(II) or Cu(I)
[26] = XPS, oxidation state of metal bound to mb: Au(III)
Source text: FIG. 11. (A) Gold X-ray photoelectric spectra of mb at gold to mb molar ratios between 0.05 and 10 Au per mb. (B) Corrected signal from Au(0) (◯) and Au(III) (●) at different gold:mb molar ratios.
(§6) XPS was preformed on a model Phoibos-150 hemispherical analyzer (SPECS Scientific Instruments, Sarasota, Fla.) or on a model 5600ci spectrophotometer (Perkin-Elmer Inc., Eden Prairie, Minn.) as previously described (Choi et al., 2006).

[27] = XPS, oxidation state of metal bound to mb: Ni(II)
Source text: as §6

[28] = Cu(II) column, cited from earlier work
[29] = first site, two-site fit, 25° C.

For methanobactin [mb], the K1 [1, 29] was 2.6 ± 0.4 × 10^7 M^−1, the K1 ([1]; second site) was 4.7 ± 0.45 × 10^4 M^−1 and the K1 [2, 29] was 1.0 ± 0.5 × 10^5 M^−1. For the same substance, the K1 ([2]; second site) was 1.8 ± 0.2 × 10^5 M^−1, the K1 [3, 29] was 9.9 ± 2.9 × 10^6 M^−1 and the K1 ([3]; second site) was 89.9 ± 0.01 × 10^4 M^−1. For the same substance, the K1 [4] was 6.84 ± 0.4 × 10^5 M^−1, the K1 [5, 29] was 1.3 ± 0.8 × 10^6 M^−1 and the K1 ([5]; second site) was 1.1 ± 0.6 × 10^7 M^−1. The K1 [6] was 1.1 ± 0.2 × 10^6 M^−1, the K1 [7, 29] was 9.7 ± 0.6 × 10^5 M^−1 and the K1 ([7]; second site) was 1.7 ± 0.7 x10^5 M^−1. For the same substance, the K1 [8] was 7.7 ± 1.8 × 10^5 M^−1, the K1 [9, 29] was 4.9 ± 0.9 × 10^5 M^−1 and the K1 ([9]; second site) was 1.17 ± 0.5 × 10^7 M^−1. The K1 [10, 29] was 4.5 ± 1.4 × 10^6 M^−1, the K1 ([10]; second site) was 1.8 ± 0.1 × 10^4 M^−1 and the “binding of Ag(I) by mb” value [11] was “will bind”. The “binding of Au(III) by mb” value [12] was “will bind”, the “binding of Cd(II) by mb” value [13] was “will bind” and the “binding of Co(II) by mb” value [14] was “will bind”. The “binding of Fe(III) by mb” value [15] was “will bind”, the “binding of Hg(II) by mb” value [16] was “will bind” and the “binding of Mn(II) by mb” value [17] was “will bind”. The “binding of Ni(II) by mb” value [18] was “will bind”, the “binding of Pb(II) by mb” value [19] was “will bind” and the “binding of U(VI) by mb” value [20] was “will bind”. The “binding of Zn(II) by mb” value [21] was “will bind”, the “binding of Ba(II) by mb” value [22] was “not” and the “binding of La(III) by mb” value [23] was “not”. The “binding of Mg(II) by mb” value [24] was “not”, the “binding of Sr(II) by mb” value [25] was “not” and the “Au to mb ratio above which Au(III) is detected in reaction mixtures” value [26] was > 2 Au(III) per mb. The “oxidation state of Au(III) after binding by mb” value ([26]; no external reductant) was “reduced to Au(0)”, the “oxidation state of Ni(II) following binding to mb” value [27] was “did not change” and the K1 ([28]; first site) was 3.3e+34 ± 3e+11 M⁻¹. For the same substance, the K1 ([28]; second site) was 2.6 ± 0.5 × 10^8 M^−1.
